Structures can show the parent of a compound that is named as a salt.
Biological target: T1, HiBiT tagged PARP14 (Homo sapiens, UniProt Q460N5)
T1 construct: engineered to contain a HiBiT tag on both alleles of the PARP14 gene; endogenous in cells; host or cells: Jurkat cells stably transfected with LgBiT (Promega), PARP14 locus edited by CRISPR/Cas9
Test: HiBiT assay for the degradation of PARP14 (HiBiT tagged PARP14 in LgBiT expressing Jurkat cells, 2 or 24 hours)
Type: cell-based
Conditions: Assay B (Example B): HiBiT tagged PARP14 degradation in LgBiT expressing Jurkat cells, read-out: DC50
Summary of the method: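 Luminescence from HiBiT–LgBiT complementation served as proxy for endogenous PARP14 level in edited LgBiT Jurkat cells (5,000/well). After 2 or 24 h compound exposure at 37 °C, signal read with Live Cell Substrate, expressed as % of 0.1% DMSO control, and fitted (4-parameter, free Hill) for DC50.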

T1 sequence (Q460N5 whole entry): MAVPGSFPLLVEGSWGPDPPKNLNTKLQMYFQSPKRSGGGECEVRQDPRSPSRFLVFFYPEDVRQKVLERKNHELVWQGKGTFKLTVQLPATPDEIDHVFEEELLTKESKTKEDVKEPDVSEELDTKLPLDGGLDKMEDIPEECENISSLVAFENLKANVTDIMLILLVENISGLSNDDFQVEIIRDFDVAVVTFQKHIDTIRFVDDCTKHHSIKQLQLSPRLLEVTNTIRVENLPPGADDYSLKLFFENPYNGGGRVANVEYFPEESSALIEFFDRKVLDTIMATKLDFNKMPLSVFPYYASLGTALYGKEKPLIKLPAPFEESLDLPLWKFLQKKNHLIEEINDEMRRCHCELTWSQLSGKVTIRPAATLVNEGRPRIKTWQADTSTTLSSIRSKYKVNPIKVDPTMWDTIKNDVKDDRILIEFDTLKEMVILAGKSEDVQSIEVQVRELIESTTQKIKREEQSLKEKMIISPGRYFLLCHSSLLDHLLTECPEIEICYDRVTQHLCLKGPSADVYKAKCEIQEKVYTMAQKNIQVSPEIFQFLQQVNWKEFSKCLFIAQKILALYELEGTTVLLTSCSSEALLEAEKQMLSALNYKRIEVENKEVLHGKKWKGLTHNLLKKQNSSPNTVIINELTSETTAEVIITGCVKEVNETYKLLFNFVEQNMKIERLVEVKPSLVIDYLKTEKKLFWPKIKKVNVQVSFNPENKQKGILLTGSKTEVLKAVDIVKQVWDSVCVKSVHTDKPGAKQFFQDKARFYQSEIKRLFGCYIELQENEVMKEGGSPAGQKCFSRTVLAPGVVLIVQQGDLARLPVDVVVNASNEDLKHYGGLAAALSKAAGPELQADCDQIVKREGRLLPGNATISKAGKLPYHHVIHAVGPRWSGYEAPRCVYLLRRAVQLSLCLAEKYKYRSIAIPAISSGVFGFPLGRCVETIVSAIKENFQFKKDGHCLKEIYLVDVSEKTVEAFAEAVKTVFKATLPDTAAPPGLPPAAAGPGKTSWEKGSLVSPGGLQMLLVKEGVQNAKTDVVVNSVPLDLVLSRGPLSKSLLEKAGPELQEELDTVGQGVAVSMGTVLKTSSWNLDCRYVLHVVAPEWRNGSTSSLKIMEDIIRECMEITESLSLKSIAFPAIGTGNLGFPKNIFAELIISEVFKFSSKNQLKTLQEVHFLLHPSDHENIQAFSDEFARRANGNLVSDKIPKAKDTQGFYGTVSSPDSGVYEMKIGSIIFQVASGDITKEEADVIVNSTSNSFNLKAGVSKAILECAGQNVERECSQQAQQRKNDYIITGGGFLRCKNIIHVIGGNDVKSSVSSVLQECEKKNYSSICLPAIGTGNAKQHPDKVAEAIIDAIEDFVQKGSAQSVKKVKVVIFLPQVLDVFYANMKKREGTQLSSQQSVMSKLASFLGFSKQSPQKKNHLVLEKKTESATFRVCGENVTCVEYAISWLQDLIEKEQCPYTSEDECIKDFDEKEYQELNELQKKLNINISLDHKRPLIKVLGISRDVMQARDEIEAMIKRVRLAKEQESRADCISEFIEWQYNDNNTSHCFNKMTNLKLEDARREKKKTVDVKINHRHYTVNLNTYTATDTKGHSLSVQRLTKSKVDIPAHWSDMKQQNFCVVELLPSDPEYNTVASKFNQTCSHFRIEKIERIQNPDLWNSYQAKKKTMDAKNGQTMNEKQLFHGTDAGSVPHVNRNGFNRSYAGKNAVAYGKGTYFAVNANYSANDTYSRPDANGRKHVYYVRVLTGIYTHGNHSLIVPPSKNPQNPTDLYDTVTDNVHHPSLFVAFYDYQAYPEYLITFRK

| Compound | DC50 |
| --- | --- |
| O=C1CCC(Nc2ccc(N3CCC(C(=O)N4CCC(COc5cc(F)c6c(=O)[nH]c(CSC7CCOCC7)nc6c5)CC4)CC3)c(F)c2)C(=O)N1 (stereo not shown) [Example 153, 3-((3-fluoro-4-(4-(4-(((5-fluoro-4-oxo-2-(((tetrahydro-2H-pyran-4-yl)thio)methyl)-3,4-dihydroquinazolin-7-yl)oxy)methyl)piperidine-1-carbonyl)piperidin-1-yl)phenyl)amino)piperidine-2,6-dione] | < 30 nM |
| O=C1CCC(Nc2ccc(N3CCN(C(=O)N4CCC(COc5cc(F)c6c(=O)[nH]c(CSC7CCOCC7)nc6c5)CC4)CC3)c(F)c2)C(=O)N1 (stereo not shown) [Example 154, 3-((3-fluoro-4-(4-(4-(((5-fluoro-4-oxo-2-(((tetrahydro-2H-pyran-4-yl)thio)methyl)-3,4-dihydroquinazolin-7-yl)oxy)methyl)piperidine-1-carbonyl)piperazin-1-yl)phenyl)amino)piperidine-2,6-dione] | < 30 nM |
| Cn1nc(N2CCC(=O)NC2=O)c2ccc(N3CCC(N4CCC(COc5cc(F)c6c(=O)[nH]c(CSC7CCOCC7)nc6c5)CC4)CC3)cc21 [Example 155, 1-(6-(4-(((5-fluoro-4-oxo-2-(((tetrahydro-2H-pyran-4-yl)thio)methyl)-3,4-dihydroquinazolin-7-yl)oxy)methyl)-[1,4′-bipiperidin]-1′-yl)-1-methyl-1H-indazol-3-yl)dihydropyrimidine-2,4(1H,3H)-dione] | < 30 nM |
| Cn1nc(C2CCC(=O)NC2=O)c2ccc(N3CCC(N4CC(N5CCC(COc6cc(F)c7c(=O)[nH]c(CSC8CCOCC8)nc7c6)CC5)C4)CC3)cc21 (stereo not shown) [Example 156, 3-(6-(4-(3-(4-(((5-fluoro-4-oxo-2-(((tetrahydro-2H-pyran-4-yl)thio)methyl)-3,4-dihydroquinazolin-7-yl)oxy)methyl)piperidin-1-yl)azetidin-1-yl)piperidin-1-yl)-1-methyl-1H-indazol-3-yl)piperidine-2,6-dione] | < 30 nM |
| O=C1CCN(c2ccc(N3CCC(N4CC(N5CCC(COc6cc(F)c7c(=O)[nH]c(CSC8CCOCC8)nc7c6)CC5)C4)CC3)c(F)c2)C(=O)N1 [Example 157, 1-(3-fluoro-4-(4-(3-(4-(((5-fluoro-4-oxo-2-(((tetrahydro-2H-pyran-4-yl)thio)methyl)-3,4-dihydroquinazolin-7-yl)oxy)methyl)piperidin-1-yl)azetidin-1-yl)piperidin-1-yl)phenyl)dihydropyrimidine-2,4(1H,3H)-dione] | < 30 nM |
| O=C1CCN(c2ccc(N3CCC(N4CCC(COc5cc(F)c6c(=O)[nH]c(CSC7CCOCC7)nc6c5)CC4)CC3)c(F)c2)C(=O)N1 [Example 158, 1-(3-fluoro-4-(4-(((5-fluoro-4-oxo-2-(((tetrahydro-2H-pyran-4-yl)thio)methyl)-3,4-dihydroquinazolin-7-yl)oxy)methyl)-[1,4′-bipiperidin]-1′-yl)phenyl)dihydropyrimidine-2,4(1H,3H)-dione formate] | < 30 nM |
| Cn1nc(N2CCC(=O)NC2=O)c2ccc(N3CCC(N4CCC(COc5cc(F)c6c(=O)[nH]c(COC7CCOCC7)nc6c5)CC4)CC3)c(F)c21 [Example 159, 1-(7-fluoro-6-(4-(((5-fluoro-4-oxo-2-(((tetrahydro-2H-pyran-4-yl)oxy)methyl)-3,4-dihydroquinazolin-7-yl)oxy)methyl)-[1,4′-bipiperidin]-1′-yl)-1-methyl-1H-indazol-3-yl)dihydropyrimidine-2,4(1H,3H)-dione formate] | < 30 nM |
| Cn1nc(N2CCC(=O)NC2=O)c2cc(F)c(N3CCC(N4CCC(COc5cc(F)c6c(=O)[nH]c(COC7CCOCC7)nc6c5)CC4)CC3)cc21 [Example 160, 1-(5-fluoro-6-(4-(((5-fluoro-4-oxo-2-(((tetrahydro-2H-pyran-4-yl)oxy)methyl)-3,4-dihydroquinazolin-7-yl)oxy)methyl)-[1,4′-bipiperidin]-1′-yl)-1-methyl-1H-indazol-3-yl)dihydropyrimidine-2,4(1H,3H)-dione] | < 30 nM |
| Cn1nc(N2CCC(=O)NC2=O)c2ccc(N3CCC(N4CC(N5CCC(COc6cc(F)c7c(=O)[nH]c(CSC8CCOCC8)nc7c6)CC5)C4)CC3)cc21 [Example 161, 1-(6-(4-(3-(4-(((5-fluoro-4-oxo-2-(((tetrahydro-2H-pyran-4-yl)thio)methyl)-3,4-dihydroquinazolin-7-yl)oxy)methyl)piperidin-1-yl)azetidin-1-yl)piperidin-1-yl)-1-methyl-1H-indazol-3-yl)dihydropyrimidine-2,4(1H,3H)-dione] | < 30 nM |
| O=C1CCN(c2cncc3c(N4CCC(N5CCC(COc6cc(F)c7c(=O)[nH]c(CSC8CCOCC8)nc7c6)CC5)CC4)cccc23)C(=O)N1 [Example 162, 1-(8-(4-(((5-fluoro-4-oxo-2-(((tetrahydro-2H-pyran-4-yl)thio)methyl)-3,4-dihydroquinazolin-7-yl)oxy)methyl)-[1,4′-bipiperidin]-1′-yl)isoquinolin-4-yl)dihydropyrimidine-2,4(1H,3H)-dione] | < 30 nM |
| Cn1nc(N2CCC(=O)NC2=O)c2cc(F)c(N3CCC(N4CCC(COc5cc(F)c6c(=O)[nH]c(CSC7CCOCC7)nc6c5)CC4)CC3)cc21 [Example 163, 1-(5-fluoro-6-(4-(((5-fluoro-4-oxo-2-(((tetrahydro-2H-pyran-4-yl)thio)methyl)-3,4-dihydroquinazolin-7-yl)oxy)methyl)-[1,4′-bipiperidin]-1′-yl)-1-methyl-1H-indazol-3-yl)dihydropyrimidine-2,4(1H,3H)-dione] | < 30 nM |
| Cn1nc(N2CCC(=O)NC2=O)c2cc(F)c(N3CCC(N4CC(N5CCC(COc6cc(F)c7c(=O)[nH]c(CSC8CCOCC8)nc7c6)CC5)C4)CC3)cc21 [Example 164, 1-(5-fluoro-6-(4-(3-(4-(((5-fluoro-4-oxo-2-(((tetrahydro-2H-pyran-4-yl)thio)methyl)-3,4-dihydroquinazolin-7-yl)oxy)methyl)piperidin-1-yl)azetidin-1-yl)piperidin-1-yl)-1-methyl-1H-indazol-3-yl)dihydropyrimidine-2,4(1H,3H)-dione] | < 30 nM |
| O=C1CCN(c2ccc(F)c(N3CCC(N4CC(N5CCC(COc6cc(F)c7c(=O)[nH]c(CSC8CCOCC8)nc7c6)CC5)C4)CC3)c2)C(=O)N1 [Example 165, 1-(4-fluoro-3-(4-(3-(4-(((5-fluoro-4-oxo-2-(((tetrahydro-2H-pyran-4-yl)thio)methyl)-3,4-dihydroquinazolin-7-yl)oxy)methyl)piperidin-1-yl)azetidin-1-yl)piperidin-1-yl)phenyl)dihydropyrimidine-2,4(1H,3H)-dione] | < 30 nM |
| COc1cc(N2CCC(N3CC(N4CCC(COc5cc(F)c6c(=O)[nH]c(CSC7CCOCC7)nc6c5)CC4)C3)CC2)c(F)cc1N1CCC(=O)NC1=O [Example 166, 1-(5-fluoro-4-(4-(3-(4-(((5-fluoro-4-oxo-2-(((tetrahydro-2H-pyran-4-yl)thio)methyl)-3,4-dihydroquinazolin-7-yl)oxy)methyl)piperidin-1-yl)azetidin-1-yl)piperidin-1-yl)-2-methoxyphenyl)dihydropyrimidine-2,4(1H,3H)-dione] | < 30 nM |
| O=C1CCN(c2cnc3cc(N4CCC(N5CC(N6CCC(COc7cc(F)c8c(=O)[nH]c(CSC9CCOCC9)nc8c7)CC6)C5)CC4)ccn23)C(=O)N1 [Example 167, 1-(7-(4-(3-(4-(((5-fluoro-4-oxo-2-(((tetrahydro-2H-pyran-4-yl)thio)methyl)-3,4-dihydroquinazolin-7-yl)oxy)methyl)piperidin-1-yl)azetidin-1-yl)piperidin-1-yl)imidazo[1,2-a]pyridin-3-yl)dihydropyrimidine-2,4(1H,3H)-dione] | < 30 nM |
| O=C1CCN(c2cnc3cc(N4CCC(N5CC(N6CCC(COc7cc(F)c8c(=O)[nH]c(COC9CCOCC9)nc8c7)CC6)C5)CC4)ccn23)C(=O)N1 [Example 168, 1-(7-(4-(3-(4-(((5-fluoro-4-oxo-2-(((tetrahydro-2H-pyran-4-yl)oxy)methyl)-3,4-dihydroquinazolin-7-yl)oxy)methyl)piperidin-1-yl)azetidin-1-yl)piperidin-1-yl)imidazo[1,2-a]pyridin-3-yl)dihydropyrimidine-2,4(1H,3H)-dione] | < 30 nM |
| O=C1CCC(N2C(=O)c3cccc4c(N5CCC(N6CC(N7CCC(COc8cc(F)c9c(=O)[nH]c(CSC%10CCOCC%10)nc9c8)CC7)C6)CC5)ccc2c34)C(=O)N1 (stereo not shown) [Example 169, 3-(6-(4-(3-(4-(((5-fluoro-4-oxo-2-(((tetrahydro-2H-pyran-4-yl)thio)methyl)-3,4-dihydroquinazolin-7-yl)oxy)methyl)piperidin-1-yl)azetidin-1-yl)piperidin-1-yl)-2-oxobenzo[cd]indol-1(2H)-yl)piperidine-2,6-dione] | < 30 nM |
| O=C1CCC(Nc2ccc(N3CCC(O)(CC(=O)N4CCC(COc5cc(F)c6c(=O)[nH]c(CSC7CCOCC7)nc6c5)CC4)CC3)cc2F)C(=O)N1 (stereo not shown) [Example 170, 3-((2-fluoro-4-(4-(2-(4-(((5-fluoro-4-oxo-2-(((tetrahydro-2H-pyran-4-yl)thio)methyl)-3,4-dihydroquinazolin-7-yl)oxy)methyl)piperidin-1-yl)-2-oxoethyl)-4-hydroxypiperidin-1-yl)phenyl)amino)piperidine-2,6-dione] | < 30 nM |
| O=C1CCC(Nc2ccc(N3CCC(N4CC(C(=O)N5CCC(COc6cc(F)c7c(=O)[nH]c(CSC8CCOCC8)nc7c6)CC5)C4)CC3)c(F)c2)C(=O)N1 (stereo not shown) [Example 171, 3-((3-fluoro-4-(4-(3-(4-(((5-fluoro-4-oxo-2-(((tetrahydro-2H-pyran-4-yl)thio)methyl)-3,4-dihydroquinazolin-7-yl)oxy)methyl)piperidine-1-carbonyl)azetidin-1-yl)piperidin-1-yl)phenyl)amino)piperidine-2,6-dione] | < 30 nM |

Reference: patent publication US20240101540A1, “TARGETED PROTEIN DEGRADATION OF PARP14 FOR USE IN THERAPY” (Ribon Therapeutics, Inc., priority 2022, published 2024)
